The text below walks through data of ChEMBL document CHEMBL1158688, “Synthesis and characterization of the 7-(4-aminomethyl-1H-1,2,3-triazol-1-yl) analogue of kabiramide C” (J Nat Prod, 2005).

Activity calls are given as the source filed them. The calls are words filed in the database; no cut-off is given here.

The species named for the test is Oryctolagus cuniculus. Briefly: Binding affinity to rabbit Prodan-labeled G-actin.
In the case of `CO[C@H]([C@H](C)/C=C/N(C)C=O)[C@@H](C)C(=O)CC[C@H](C)[C@@H](C[C@@H]1OC(=O)CC(OC(N)=O)C[C@H](C)C[C@@H](n2cc(CN)nn2)[C@H](C)[C@@H](OC)c2coc(n2)-c2coc(n2)-c2coc(n2)/C=C/C[C@H](OC)[C@H]1C)OC` (stereo partly drawn), the outcome was Active.

On to `CO[C@H]([C@H](C)/C=C/N(C)C=O)[C@@H](C)C(=O)CC[C@H](C)[C@@H](C[C@@H]1OC(=O)CC(OC(N)=O)C[C@H](C)C[C@@H](N=[N+]=[N-])[C@H](C)[C@@H](OC)c2coc(n2)-c2coc(n2)-c2coc(n2)/C=C/C[C@H](OC)[C@H]1C)OC` (stereo partly drawn), for which the result was Active.

Turning to `CO[C@H]([C@H](C)/C=C/N(C)C=O)[C@@H](C)C(=O)CC[C@H](C)[C@@H](C[C@@H]1OC(=O)CC(OC(N)=O)C[C@H](C)C[C@@H](n2cc(CNC(=O)OCC3c4ccccc4-c4ccccc43)nn2)[C@H](C)[C@@H](OC)c2coc(n2)-c2coc(n2)-c2coc(n2)/C=C/C[C@H](OC)[C@H]1C)OC` (stereo partly drawn), the outcome was Active.
